The test system of data set [1] is healthy human epithelial prostate cells (CC2555). Description: Confocal laser scanning microscopy (CLSM) of cellular uptake. It is filed as cell-based. The following applies: 20 minutes incubation, 10 μg/ml. On the procedure:
(§1) The cells were grown to 80% confluency at 37° C., 5% CO2 (vol/vol) in 4-well plates (NUNC, Wiesbaden, Germany) with about 300,000 cells per well.
(§2) U373 human glioma cells, human prostate carcinoma cells PC3 and LNCaP, human Jurkat lymphoma cells, and human colon carcinoma cells Colo205 were grown in RPMI1640 ready mix medium containing L-glutamine and 10% fetal bovine serum (FBS)-gold (PAA Laboratories, Pasching, Austria). U2OS human osteosarcoma cells and HeLa human cervix carcinoma cells were grown in high glucose Dulbeccos modified Eagle's medium containing GlutaMax™ and pyrovate and 10% FBS-gold. Healthy human prostate cells (CC2555, Lonza, Verviers, Belgium) were cultivated in prostate endothelial cell growth medium (PrEGM, Lonza, Verviers, Belgium).
The compounds 1, 2 and 4 were dissolved at 1 mg/ml in pure ethanol (Riedel de Haen, Sigma-Aldrich, Taufkirchen, Germany) and then diluted in the appropriate medium for the cells to 10 μg/ml of conjugate and 1% ethanol. The cells were incubated at 37° C. in an atmosphere of 5% CO2 for 20 minutes with the compounds. […]
(§3) The confocal laser scanning microscopy was performed on an inverted LSM510 laser scanning microscope (Carl Zeiss) (objective: LD Achroplan 40×0.6, Plan Neofluar 20×0.50, 40×0.75). For the rhodamine fluorescence excitation the 543 nm beam of a helium-neon laser with suitable beam splitters and barrier filters were used. […]

The test system of a further data set is PC3 prostate carcinoma. Nature of the data set: Touch prints of the tumor after intraperitoneal injection. The note with it: 20 minutes after intraperitoneal injection; no fixation. Format: in vivo, nude mouse. On the procedure:
For touch prints, the tumor of a mouse treated with the rhodamine containing compound 1 (1.5 mg intraperitoneally for 20 minutes) was excised. The tumor was cut and the cells were streaked onto a slide without fixation. The tumor cells were immediately analyzed by CLSM (without fixation).
(§4) The experiments were repeated two times.

For data set [2], the system named is PC-3 prostate carcinoma cells. Description: Confocal laser scanning microscopy (CLSM) of cellular uptake. It is filed as cell-based, human. The following applies: 20 minutes incubation, 10 μg/ml. On the procedure: as §1, §2
(§5) The compounds 1, 2 and 4 were dissolved at 1 mg/ml in pure ethanol (Riedel de Haen, Sigma-Aldrich, Taufkirchen, Germany) and then diluted in the appropriate medium for the cells to 10 μg/ml of conjugate and 1% ethanol. The cells were incubated at 37° C. in an atmosphere of 5% CO2 for 20 minutes with the compounds. After this, the cells were rinsed three times with medium and then incubated with medium again. This experiment was also performed with free sulforhodamine B with a corresponding amount.
The compound 10 was dissolved in culture medium (260 μM). Lys(FITC)-aminobourgeonal (compound 7) was dissolved in culture medium with 1% ethanol (260 μM). The cells were incubated for 20 minutes (compound 10) and for 2 days (compounds 7 and 10). This assay was also performed with free FITC. After the incubation the cells were rinsed three times with medium and again incubated in medium. Propidium iodide (PI) (molecular probes, Eugene, Oreg., USA) was added to stain death cells.
as §3

Data set [3] can be described thus: Tolerability in the animals. Format: in vivo. The note with it: intraperitoneal injection, nude mice.
For data set [4], the system named is LNCaP prostate carcinoma cells. Nature of the data set: Confocal laser scanning microscopy (CLSM) of cellular uptake. It is filed as cell-based, human. The following applies: 20 minutes incubation, 10 μg/ml. The method, then: as §1, §2, §5
(§6) The confocal laser scanning microscopy was performed on an inverted LSM510 laser scanning microscope (Carl Zeiss) (objective: LD Achroplan 40×0.6, Plan Neofluar 20×0.50, 40×0.75). For the rhodamine fluorescence excitation the 543 nm beam of a helium-neon laser with suitable beam splitters and barrier filters were used. All measures were performed at least three times on living, non-fixed cells.

The test system of data set [5] is non-prostate tumor cell lines (colo 205 colon carcinoma, U373 glioma, U2OS osteosarcoma, HeLa cervix carcinoma, jurkat lymphoma). The description is as above. It is filed as cell-based, human. The note with it: all other (non-prostate) tumor cells; 20 minutes incubation; 10 μg/ml. On the procedure:
as §1, §2, §5, §6

The subject of a further data set is nude mice organs. Nature of the data set: CLSM of frozen sections of nude mice organs after intraperitoneal injection. It is filed as in vivo, nude mouse. The note with it: 90 minutes after intraperitoneal injection. On the procedure:
(§7) PC3 and LNCaP prostate tumor cells were grown to 80% confluency, detached with Accutase™ (PAA Laboratories, Pasching, Austria) and then harvested. The cells were washed with PBS three times and then drawn up into a 30 g Micro-Fine™ insulin syringe (Becton Dickinson, Franklin Lakes, N.J., USA). Approximately 5×10^5 cells per mouse were injected into the right thigh of a male CD1 Nu/Nu mouse (Charles River, WIGA, Sulzfeld, Germany). The tumor growth was monitored and after 10 to 14 days mice bearing tumors with 2-3 mm in diameter were treated with the conjugate. 1.5 mg of the compound 1 were dissolved in 300 μl PBS containing 20% ethanol and applied intraperitoneally. After 90 minutes of circulation the mice were sacrificed and subsequently the tumors and organs were removed, embedded in Jung tissue freezing medium (Leica Instruments, Nussloch, Germany) and frozen in liquid nitrogen. Frozen sections (5 μm thickness) were prepared (LD3000 Cryotom, Leica Biosystems GmbH, Nussloch, Germany) and the rhodamine staining was analyzed by confocal laser scanning
as §4

The subject of data set [6] is human prostate carcinoma (PC3) implanted into nude mice. Description: CLSM of frozen sections of implanted tumor after intraperitoneal injection. It is filed as in vivo, nude mouse. The method, then: as §7
To evaluate the in- and efflux of the rhodamine conjugated compound 1, the experiment was repeated with circulation times of 20 minutes and 180 minutes.
as §4

SMILES strings stand for the structures.

For the compound `CCN(CC)c1ccc2c(-c3ccc(S(=O)(=O)NCCCCCCCCCCC=O)cc3S(=O)(=O)O)c3ccc(=[N+](CC)CC)cc-3oc2c1` [compound 1, sulforhodamine-sulfonamido-aminoundecylic aldehyde], the “uptake into the cells (rhodamine staining, CLSM)” value is on record as “take up the compound according to the invention into the cytoplasm” in data set [1], “take up the compound according to the invention into the cytoplasm” in data set [2], “take up the compound according to the invention into the cytoplasm” in data set [4] and “do not take up the compound according to the invention” in data set [5]. Besides, the “compound in tumor cells of touch prints” value in the data set with PC3 prostate carcinoma was “reached the cytoplasm of the prostate carcinoma cells”. Also, the tolerability entry in data set [3] is “very well tolerated by the animals”. For the same compound, the “staining of healthy prostate tissue of the mouse” value with nude mice organs was “almost no staining”. In addition, the “absorption into the cytoplasm of the prostate carcinoma cells” value in data set [6] (20 minutes after intraperitoneal injection) was “very well absorbed”. Further, the “rhodamine fluorescence of the prostate carcinoma in frozen sections” value in data set [6] (90 minutes after intraperitoneal injection, in comparison to lymph nodes and lung) is given as “significantly stronger red fluorescence”. In data set [6] (180 minutes after intraperitoneal injection), the “compound in the cytoplasm of the prostate carcinoma cells” value is “efflux of the compound out of the cytoplasm”.

Source of the values: US8691183B2, “Means for the detection and treatment of prostate cells” (Eberhard-Karls-Universitaet Tuebingen Universitaetsklinikum, priority 2008, dated 2014).
